The text below walks through data of US20070154534A1, “Use of secretin in the treatment of schizophrenia” (priority 2003, published 2007).

Marks after values point to notes of the source that are not given here. Ends that are not written are not given here.

The conditions of series [1]: clinical units (CU); 0.2 mcg = 1 CU; cited from earlier work.
The test system of series [2] is patients with refractory schizophrenia. Kind of series: Double-blind placebo-controlled pilot study of a single intravenous dose of porcine secretin, rated with PANSS and CGI. The series is classed as in vivo, human. The settings on record: for PANSS negative: baseline 25.5; for PANSS positive: baseline 27; for PANSS general: baseline 48.7; for PANSS total: baseline 101.2. The method, then:
A pilot study of secretin for treatment of refractory schizophrenia was performed. Twenty-two patients were randomized to a single intravenous dose of porcine secretin or placebo. Patients were evaluated with the Positive and Negative Symptom Scale for Schizophrenia (PANSS) and the Clinical Global Impression Scale (CGI) at baseline, two days after secretin infusion and weekly for four weeks. Several patients treated with secretin experienced clinically meaningful, though transient when given a single dose, reductions in symptoms and a greater percentage of patients treated with secretin were rated as improved with the CGI.
All subjects were inpatients at Dorothea Dix Hospital in Raleigh, N.C. United States of America. The protocol was approved by the University of North Carolina at Chapel Hill Committee for the Protection of the Rights of Research Subjects. Subjects or their guardians provided written informed consent. Patients met the following inclusion criteria: (1) age 18-60; (2) DSM-IV diagnosis of schizophrenia or schizoaffective disorder; (3) severe residual symptoms despite at least three adequate trials of anti-psychotic drugs, including at least one atypical drug. Residual symptoms were defined as active delusions, hallucinations, or thought disorder, accompanied by unemployment and lack of significant social relationships outside the family of origin; (4) a baseline PANSS score of at least 70; (5) no changes in psychotropic medications for 4 weeks prior to study entry.
Subjects were assessed at baseline, two days post-infusion, and weekly for four subsequent weeks, with the Clinical Global Impression Scale (CGI) and the Positive and Negative Symptom Scale for Schizophrenia (PANSS). All raters achieved inter-rater reliability of at least 0.90 for the PANSS, and each subject had the same rater for each assessment. Qualitative impressions were also collected from clinical staff during the course of the trial.

Series [3] shares this test system. The settings on record: in vivo, iv.
Protocol: Twenty-two subjects were enrolled in the protocol and were randomly assigned to receive one dose of intravenous porcine secretin (SECRETIN-FERRING™, Ferring Laboratories, Inc., Suffern, N.Y., United States of America) or normal saline under double-blind conditions. The protocol allowed for only one infusion of secretin regardless of response. The first seven subjects received either 75 CU of secretin dissolved in 7.5 mL of normal saline (n=4), or saline alone (n=3). The remaining 15 subjects received 150 CU of secretin (n=7) or saline (n=8).
Setting [4] is: Week 1, single i.v. dose 75 or 150 CU, n=11, mean.
Setting [5] is: Week 1 after single i.v. dose 75 or 150 CU, n=11, mean.
Where [6] appears, read: Week 2, single i.v. dose 75 or 150 CU, n=11, mean.
The mark [7] stands for this setting: Week 2 after single i.v. dose 75 or 150 CU, n=11, mean.
The mark [8] stands for this setting: Week 3, single i.v. dose 75 or 150 CU, n=11, mean.
Setting [9] is: Week 3 after single i.v. dose 75 or 150 CU, n=11, mean.
The mark [10] stands for this setting: Week 4, single i.v. dose 75 or 150 CU, n=11, mean.
Where [11] appears, read: Week 4 after single i.v. dose 75 or 150 CU, n=11, mean.
Setting [12] is: within the first week after infusion, of 11 secretin-treated patients.

As for “SECREFLO: Secretin commercially available under the trademark SECREFLO from RepliGen Corporation (HSDGTFTSELSRLRDSARLQRLLQGLV-NH2; ends and bridges not checked; UniProt P63298 33-59, looked up)”, the “Potency per milligram of peptide” value in series [1] is on record as “approximately 5000 CU per milligram”.
With Secretin, the “Patients with a clinically meaningful response” value in series [2] (75 CU single i.v. dose) was 1 of 4. Besides, the “Patients with a clinically meaningful response” value in series [2] (150 CU single i.v. dose) is recorded as 2 of 7. The CGI-I in series [2] (Day 2 after single i.v. dose 75 or 150 CU, n=11, mean (SD)) is listed as 3.5 (0.8)*. The “Group by time interaction for the CGI-Improvement (CGI-I) scale (repeated measures ANOVA, vs placebo)” value in series [2] (F=0.69) is “no significant group by time interaction”. Also, in series [2] (F=1.72, 1.08, 0.6679, 0.41), the “Group by time interaction for PANSS total, positive, negative and general psychopathology scores (repeated measures ANOVA, vs placebo)” value was “no significant group by time interactions”. In series [2] (setting [4]), this substance displayed a PANSS negative of 24.3, a PANSS positive of 25 and a PANSS general of 45.8. Besides, in series [2] (setting [5]), the CGI-I is 3.4* and the PANSS total came to 95.1. Moreover, in series [2] (setting [6]), the PANSS negative came to 24.7, the PANSS positive worked out at 26.9 and the PANSS general is given as 49.2. In addition, in series [2] (setting [7]), the CGI-I is reported as 3.9 and the PANSS total is recorded as 100.8. Also, in series [2] (setting [8]), the PANSS negative is 24.9, the PANSS positive is 27 and the PANSS general was determined as 48.2. Moreover, in series [2] (setting [9]), the CGI-I is reported as 3.8* and the PANSS total was 100.1. Moreover, in series [2] (setting [10]), the PANSS negative was determined as 24.5, the PANSS positive was 26.7 and the PANSS general amounted to 48.3. Besides, in series [2] (setting [11]), the CGI-I is reported as 3.9 and the PANSS total is 99.5. In addition, the “Time until reversion to usual behavior and level of function” value in series [2] (patient of Example 1, 75 CU) is on record as “four”. The “Time to onset of clinical improvement (more interactive)” value in series [2] (patient of Example 1, person, disorganized schizophrenia, 75 CU) was at most 24 h. The “Time until return to baseline mental state” value in series [2] (patient of Example 2, 150 CU) was at most 12 h. The “Time to onset of clinical improvement (more alert, coherent speech)” value in series [2] (patient of Example 2, person, disorganized schizophrenia, 150 CU) is “six”. The “Time after infusion at which improvement was seen (agreed to attend off ward activities)” value in series [2] (patient of Example 3, person, paranoid schizophrenia, 150 CU) is 48 h. Further, the “CGI-I scale vs placebo, post-hoc exploratory Student's t-tests” value in series [2] (two days after infusion (p=0.03), week 1 (p=0.009), week 3 (p=0.002)) is listed as “significant improvement”. In series [2] (setting [12]), the “Patients rated as minimally improved (qualitative grouping of CGI-I scores)” value is on record as “five”, the “Patients rated as much improved (qualitative grouping of CGI-I scores)” value is given as “three”, the “Patients rated as unchanged (qualitative grouping of CGI-I scores)” value was “two” and the “Patients rated as worse (qualitative grouping of CGI-I scores)” value is “one”. Moreover, in series [3], the Allergic reactions result is listed as “no allergic reactions were observed”, the “Premature dropouts or serious adverse events during the trial” value is “no premature dropouts or serious adverse events” and the Side effects result is “no side effects noted”.
As for “biologically derived porcine secretin: biologically derived porcine secretin, comparison for SECREFLO potency (HSDGTFTSELSRLRDSARLQRLLQGLV; ends and bridges not checked; UniProt P63298 33-59, looked up)”, in series [1], the “Potency per milligram of peptide” value is 3000 CU per milligram.
